Literature values, collected in patent publication US20140294790A1, “METHOD OF PREVENTING, CONTROLLING AND AMELIORATING URINARY TRACT INFECTIONS AND SUPPORTING DIGESTIVE HEALTH BY USING A SYNERGISTIC CRANBERRY DERIVATIVE, A D-MANNOSE COMPOSITION AND A PROPRIETARY PROBIOTIC BLEND” (U.S. NUTRACEUTICALS, LLC d/b/a Valensa International, priority 2008, published 2014).

Measured: antibacterial activity

acidophilin
demonstrated activity: Staphylococcus aureus | Salmonella enteritidis | Clostridium perfringens | Bacillus subtilis | Escherichia coli | Salmonella typhimurium
